The subject of data set [1] is OC43. In words: Dose-response analysis of OC43 infection. It counts as cell-based, human beta coronavirus OC43. As to conditions: Betacoronavirus 1, OC43, 48 h, read-out: EC50 OC43, A549-mRuby cells, staining 2 days after infection. The protocol: Dose-response analysis of OC43 infection was done similarly to the drug screening, except cells were seeded at a concentration of 5,000 cells per well and the media contained 2% BCS instead of 10% BCS. OC43 staining was performed 2 days after infection and analyzed similarly to what was described for the drug screening. A sigmoid fit was used to extract EC50 values using Matlab.

Data set [2] deals with OC43. The data set can be described thus: Drug screening: OC43 nucleoprotein staining in infected A549-mRuby cells. As to conditions: 10 μM drug; for activity at 10 µM: Betacoronavirus 1, OC43, 96 h, MOI 0.3, 4 days. Type of data set: cell-based, human beta coronavirus OC43. The method in brief: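 A549 cells expressing H2B-mRuby infected with OC43 at MOI 0.3 for 1 h at 33° C, then drugs added at 10 μM final and incubated 4 days at 33° C. Viral nucleoprotein immunostained and imaged; intensity normalized to cell number and no-drug controls (=100). Hits reduced staining >3 SD in both repeats without toxicity.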

The subject of data set [3] is A549-mRuby cells. The data set can be described thus: Drug screening: effect on cell growth (cell number day 4 / day 0). The settings on record: 10 μM drug; for Growth_1: number of cells at day 4 divided by number of cells at day 0 / toxic_1: repeat #1; for Growth_2: number of cells at day 4 divided by number of cells at day 0 / toxic_2: repeat #2. An outline of the steps:
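A549 cells carrying an H2B-mRuby reporter were infected with OC43 at MOI 0.3 for 1 h at 33° C, then given drug at 10 μM final. Cell numbers were counted by imaging at day 0 and again at day 4 after 4 days at 33° C, 5% CO2, with the screen run twice.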

Data set [4] deals with SARS-CoV-2. The data set can be described thus: microbe, parasite or virus in culture. Type of data set: cell-based, SARS-CoV-2 (nCoV/Washington/1/2020).
Setting [5] is: OC43 staining normalized to no-drug controls, mean of the two screen repeats, read-out: OC43_mean.
Setting [6] is: normalized to no-drug controls in the same plate, repeat #1, read-out: OC43_1: % staining of OC43 in screen repeat #1.
Setting [7] is: normalized to no-drug controls in the same plate, repeat #2, read-out: OC43_2: % staining of OC43 in screen repeat #2.
[8] abbreviates: Severe acute respiratory syndrome coronavirus 2; read-out: EC50 SARS2.

Where two headings read alike, the source gives them in different places. Bounds are passed on as bounds.

Regarding `COc1ccc2cc1Oc1ccc(cc1)C[C@H]1c3c(cc4c(c3Oc3cc5c(cc3OC)CCN(C)[C@@H]5C2)OCO4)CCN1C` [Cepharanthine], the EC50 (as a rule, the concentration giving half of the maximal effect) in data set [1] came to 0.77 µM. The compound further had a hit_1 in data set [2] (repeat #1) of 1. Besides, the hit_2 in data set [2] (repeat #2) is on record as 1. Besides, the activity at 10 µM in data set [2] (setting [5]) stood at 20.3%. In addition, the activity at 10 µM in data set [2] (setting [6]) is 28.5%. For the same compound, the activity at 10 µM in data set [2] (setting [7]) is 12.1%. In addition, in data set [3], the “Growth_1: number of cells at day 4 divided by number of cells at day 0” value turned out to be 4.3, the toxic_1 worked out at 0, the “Growth_2: number of cells at day 4 divided by number of cells at day 0” value is 4.7 and the toxic_2 came to 0. Moreover, the EC50 in data set [4] (setting [8]) is 0.13 µM.
As for `COC(=O)N[C@H](C(=O)N1CCC[C@H]1c1ncc(-c2ccc3c(c2)O[C@@H](c2ccccc2)n2c-3cc3cc(-c4cnc([C@@H]5CCCN5C(=O)[C@@H](NC(=O)OC)C(C)C)[nH]4)ccc32)[nH]1)C(C)C` [Elbasvir], the EC50 in data set [1] was 0.17 µM; in data set [4] (setting [8]), over 10 µM. The hit_1 in data set [2] (repeat #1) was 1. In data set [2] (repeat #2), this compound yielded a hit_2 of 1. Further, the activity at 10 µM in data set [2] (setting [5]) was 20.1%; in data set [2] (setting [6]) it was 18.8%; in data set [2] (setting [7]), 21.4%. Also, in data set [3], the “Growth_1: number of cells at day 4 divided by number of cells at day 0” value is given as 4.7. In data set [3], this compound yielded a toxic_1 of 0. In data set [3], the “Growth_2: number of cells at day 4 divided by number of cells at day 0” value came out at 5.3. Moreover, the toxic_2 in data set [3] came out at 0. Also, in data set [4], the “inhibition of SARS-CoV-2 infection (in words)” value is “did not inhibit SARS-CoV-2 infection”.
As to `CCN(CCCCOC(=O)c1ccc(OC)c(OC)c1)C(C)Cc1ccc(OC)cc1.O` (centres unmarked) [Mebeverine Hydrochloride], the figures for the EC50 in data set [1] and in data set [4] (setting [8]) were 5 µM and 10 µM, respectively. This compound yielded a hit_1 in data set [2] (repeat #1) of 1. Moreover, the hit_2 in data set [2] (repeat #2) stood at 1. Also, the activity at 10 µM in data set [2] (setting [5]) came to 20%; in data set [2] (setting [6]), 20.1%; in data set [2] (setting [7]) it was 19.9%. The “Growth_1: number of cells at day 4 divided by number of cells at day 0” value in data set [3] is 5.2. For the same compound, the toxic_1 in data set [3] is recorded as 0. Besides, in data set [3], the “Growth_2: number of cells at day 4 divided by number of cells at day 0” value was determined as 3.9. In data set [3], this compound gave a toxic_2 of 0.
As to `CNCCC=C1c2ccccc2CCc2ccccc21.O` [Nortriptyline hydrochloride], in data set [1], the EC50 was found to be 7.5 µM. This compound also registered a hit_1 in data set [2] (repeat #1) of 1. The compound further yielded a hit_2 in data set [2] (repeat #2) of 1. Also, the activity at 10 µM in data set [2] (setting [5]) came out at 19.6%. For the same compound, the activity at 10 µM in data set [2] (setting [6]) was determined as 25.2%. Moreover, the activity at 10 µM in data set [2] (setting [7]) worked out at 14%. For the same compound, in data set [3], the “Growth_1: number of cells at day 4 divided by number of cells at day 0” value is reported as 4.2, the toxic_1 stood at 0, the “Growth_2: number of cells at day 4 divided by number of cells at day 0” value is given as 3.1 and the toxic_2 was determined as 0. The EC50 in data set [4] (Severe acute respiratory syndrome coronavirus 2, read-out: EC50 SARS2) is 3.2 µM.
Turning to `CCN(CC)CCOCCOC(=O)C1(c2ccccc2)CCCC1.O=C(O)CC(O)(CC(=O)O)C(=O)O` [Pentoxyverine Citrate], the EC50 in data set [1] was 5.5 µM. The same compound yielded a hit_1 in data set [2] (repeat #1) of 1. The compound also gave a hit_2 in data set [2] (repeat #2) of 1. Moreover, in data set [2] (setting [5]), the activity at 10 µM stood at 9.3%. For the same compound, in data set [2] (setting [6]), the activity at 10 µM stood at 10.8%. Further, the activity at 10 µM in data set [2] (setting [7]) stood at 7.7%. Moreover, in data set [3], the “Growth_1: number of cells at day 4 divided by number of cells at day 0” value was determined as 5.0, the toxic_1 was 0, the “Growth_2: number of cells at day 4 divided by number of cells at day 0” value worked out at 5.7 and the toxic_2 came out at 0. In data set [4] (setting [8]), the EC50 stood at 3.6 µM.
Regarding `CCCNCC(O)COc1ccccc1C(=O)CCc1ccccc1.O` (centres unmarked) [Propafenone HCl], the EC50 in data set [1] stood at 7.3 µM; in data set [4] (setting [8]), 3.7 µM. In data set [2] (repeat #1), the hit_1 turned out to be 1. For the same compound, in data set [2] (repeat #2), the hit_2 is 1. Further, the activity at 10 µM stood at 19.8% in data set [2] (setting [5]), 20.4% in data set [2] (setting [6]) and 19.2% in data set [2] (setting [7]). Further, in data set [3], the “Growth_1: number of cells at day 4 divided by number of cells at day 0” value is 4.7. Also, in data set [3], the “Growth_2: number of cells at day 4 divided by number of cells at day 0” value was determined as 3.4.

(Values after patent US20230285405A1, “Pharmaceuticals for Treating or Preventing Nidoviruses and Picornaviruses” (priority 2020, published 2023).)
